Data from patent US20220160652A1, “USE OF VITAMIN K IN COMBINATION WITH ANTICOAGULANTS” (KAYDENCE PHARMA AS, priority 2019, published 2022).
“Also recorded” adds a separate entry of the source.

How the values were obtained:
VSMCs [1] = test: Warfarin-induced oxidative stress in VSMCs, effect of vitamin K2 (DCFDA); assay type: cell-based; details: 5 hours incubation
Method: It is known that the level of reactive oxygen species in cells can be measured by measuring the conversion of 2′,7′—dichlorofluorescein diacetate (DCFDA) to the fluorescent dye 2′,7′-dichlorofluorescein (DCF). The fluorescence generated by cells subjected to DCFDA is directly proportional to the amount of oxidized DCFDA to DCF.
This study was performed to determine if vitamin K2 (MK-7) reduces warfarin-induced oxidative stress. To perform the study, VSMCs (10,000 cells/well) were plated in a 96-well plate and left to adhere overnight. Next, cells were incubated for 24 hours with 100 μM warfarin. The next day, […] DCFDA was added to the cells for 1 hour. The cells were then incubated for 5 hours with normal medium (baseline), vitamin K2 (MK-7), or warfarin. Fluorescence was measured and fluorescence intensity was normalized for cell count.

VSMCs [2] = test: ATP increase, 24 h incubation (luminescence); assay type: cell-based; details: 10 μM, p=0.014 for MK-7
Method: This study was performed to determine if vitamin K2 (MK-7) affects ATP generation. ATP is generated via glycolysis in the cytoplasm and via both the Krebs-cycle and oxidative phosphorylation in the mitochondria. ATP generation via glycolysis delivers only 2 ATP, whereas ATP generation in the mitochondria generates some 32 ATP.
To perform this study, VSCMs (5000 cells/well) were plated in 96-well plates and left to adhere overnight. Next, cells were incubated for 24 hours with either vehicle, vitamin K2 (MK-7) (10 μM), or UQ10 (10 μM). Hoechst was added to correct for cell number (1 μg/mL). Next, ATP was measured using mammalian lysis buffer for 5 minutes after which 50 μL ATP substrate solution was added to the wells and incubated for 10 minutes in a dark environment. Finally, the medium was transferred to a white plate to measure luminescence

[3] = test system: transgenic Ren-2 rats [TGR(mREN-2)27]; test: T-TAS thrombus formation in whole blood of treated TGR (Ren-2) rats; assay type: in vivo, rat; details: vitamin K2 (MK-7) added
Method: This experiment was conducted in order to evaluate the effects of vitamin K2 (MK-7) on the anticoagulant activity of the new oral anticoagulants (NOAC) rivaroxaban and dabigatran using the T-TAS Total Thrombus-formation Analysis System. The T-TAS Total Thrombus-formation Analysis System is a microchip-based flow chamber system capable of evaluating whole-blood thrombogenicity. It is a useful tool in monitoring the efficacy of anticoagulants on thrombus formation and predicting the risk of bleeding complications. […] Four days before the start of the treatment, the first part of animals' body weight and food intake was measured in selected representative three cages (rats n=9) to calculate the appropriate amount of tested compounds required for addition to the diet to obtain the dosing indicated in Table 1. […] The body mass of the rats was measured at the beginning and at the end of treatment. At the beginning and at the end of treatment, the food intake per day was measured in representative group of animals to monitor the daily dosing of tested compounds (per kg of body mass). The thrombus formation in vitro was measured in whole blood using a microchip-based flow chamber system according to manufacturers' protocol (Total Thrombus-formation Analyser System, T-TAS; Fujimori Kogyo Co., Ltd., Tokyo, Japan). […]

Sprague-Dawley rats = test: Thrombin Time (TT) in treated Sprague-Dawley rats; assay type: in vivo, rat; details: added to dabigatran and to rivaroxaban
Method: To perform the study, 45 wild-type male Sprague-Dawley and 45 transgenic male Ren-2 rats [TGR(mREN-2)27] at the age of 10-11 weeks at the beginning of the treatment period were purchased from animal facility IKEM-CEM Institute of Clinical and Experimental Medicine (Prague, Czech Republic). All animals in the experiment were housed in individually ventilated cages (2-3 rats per cage) and kept in the animal rooms of JCET at a relative humidity of 55±10%, a temperature of 22±2 ° C., and a light cycle of 7 AM to 7 PM. The rats had free access to food and water. After delivery, animals were randomly divided into 10 experimental groups (5 or 10 rats per group), as indicated below in Table 1.
Four days before the start of the treatment, the first part of animals' body weight and food intake was measured in selected representative three cages (rats n=9) to calculate the appropriate amount of tested compounds required for addition to the diet to obtain the dosing indicated in Table 1. It was estimated that food intake was approximately 30 g of chow per rat per day. […] The body mass of the rats was measured at the beginning and at the end of treatment.
Prothrombin Time (PT), activated Partial Thromboplastin Time (aPTT), Thrombin Time (TT) and fibrinogen levels (Clauss method) were determined according to the manufacturer's instructions using Coag-Chrom 3003 apparatus (Bio-ksel, Grudziadz, Poland). […]

In the case of CC(C)=CCC/C(C)=C/CC/C(C)=C/CC/C(C)=C/CC/C(C)=C/CC/C(C)=C/CC/C(C)=C/CC1=C(C)C(=O)c2ccccc2C1=O [vitamin K2 (MK-7)], the “warfarin-induced oxidative stress in VSMCs” value (VSMCs [1]; after 24 hours 100 μM warfarin) is reported as “counteracted the warfarin-induced oxidative stress; also recorded: counteracts intracellular oxidative stress”, the “normal oxidative stress in VSMCs” value (VSMCs [1]; normal conditions) is reported as “reduced not only normal oxidative stress; also recorded: counteracts intracellular oxidative stress” and the “ATP production in VSMCs compared to the vehicle” value (VSMCs [2]) is reported as “increased ATP production in VSMCs significantly”. For the same compound, the “modification of the thrombus formation inhibition by dabigatran and rivaroxaban” value [3] was “did not modify this effect significantly” and the “increase of thrombin time on addition of vitamin K2 (MK-7)” value (Sprague-Dawley rats) was 5-7%.
